This passage reports IC50 and inhibition results from paper PMC10373466 (ACS Omega, 2023).

One series deals with hAChE (Homo sapiens, UniProt P22303). In words: In vitro AChE inhibition assay. The following applies: in vitro AChE inhibition IC50 ± SD, Ellman method, n = 3. Format: biochemical. On the technique in general: DTNB colorimetry detects thiols as they appear.
Another series deals with Aβ1–42 (Homo sapiens, UniProt P05067). In words: Self-induced Aβ1–42 aggregation inhibition. Format: biochemical. As to conditions: read-out: Aβ1–42 (% inhibition at 10 μM).
Chain of Aβ1–42 (P05067 672-713): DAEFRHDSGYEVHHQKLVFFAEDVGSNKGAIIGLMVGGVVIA
The nature of series [1]: In vitro hepatotoxicity MTT assay. The following applies: human. (In general: Tetrazolium assays rely on reduction of a dye to a coloured formazan, in cell work by metabolically active cells.)

The structures appear in SMILES notation.

Chain of hAChE (P22303 32-614): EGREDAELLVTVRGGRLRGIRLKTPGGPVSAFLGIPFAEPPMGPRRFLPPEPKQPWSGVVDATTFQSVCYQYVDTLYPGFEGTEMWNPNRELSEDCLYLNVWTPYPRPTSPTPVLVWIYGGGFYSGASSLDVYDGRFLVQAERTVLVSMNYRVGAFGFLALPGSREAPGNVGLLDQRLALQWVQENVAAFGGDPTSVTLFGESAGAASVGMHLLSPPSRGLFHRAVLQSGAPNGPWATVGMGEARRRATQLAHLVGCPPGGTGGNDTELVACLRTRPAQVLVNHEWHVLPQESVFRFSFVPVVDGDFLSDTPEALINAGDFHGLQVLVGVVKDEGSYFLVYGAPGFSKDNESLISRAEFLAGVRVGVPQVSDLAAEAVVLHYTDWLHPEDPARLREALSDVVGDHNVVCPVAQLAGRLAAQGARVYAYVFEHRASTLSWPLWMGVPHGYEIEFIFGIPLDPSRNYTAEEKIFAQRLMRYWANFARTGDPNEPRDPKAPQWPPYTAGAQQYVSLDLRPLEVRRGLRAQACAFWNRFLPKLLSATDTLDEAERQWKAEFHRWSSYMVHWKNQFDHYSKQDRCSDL

As a reminder, the IC50 is the concentration needed to halve the response being measured. In the case of `Nc1c2c(nc3c1C(c1cccc(Br)c1)c1ccc(O)cc1O3)CCCC2` (centres unmarked) [3a, 11-Amino-12-(3-bromophenyl)-7,9,10,12-tetrahydro-8H-chromeno[2,3-b]quinolin-3-ol], the IC50 at hAChE stood at 3.48 ± 0.19 µM.

At hAChE, `COc1cccc(C2c3ccc(O)cc3Oc3nc4c(c(N)c32)CCCC4)c1` (centres unmarked) [3b, 11-Amino-12-(3-methoxyphenyl)-7,9,10,12-tetrahydro-8H-chromeno[2,3-b]quinolin-3-ol] came in with an IC50 of 26.7 ± 1.42 µM.

As to `Nc1c2c(nc3c1C(c1cccc([N+](=O)[O-])c1)c1ccc(O)cc1O3)CCCC2` (centres unmarked) [3c, 11-Amino-12-(3-nitrophenyl)-7,9,10,12-tetrahydro-8H-chromeno[2,3-b]quinolin-3-ol], the half-maximal inhibitory concentration (IC50) against hAChE is 15.1 ± 0.8 µM.

As to `Nc1c2c(nc3c1C(c1ccc(Cl)c(Cl)c1)c1ccc(O)cc1O3)CCCC2` (centres unmarked) [3d, 11-Amino-12-(3,4-dichlorophenyl)-7,9,10,12-tetrahydro-8H-chromeno[2,3-b]quinolin-3-ol], the IC50 against hAChE was determined as 5.31 ± 0.28 µM. This IC50 lies about 2.8-fold lower than the previous one.

On hAChE, `COc1ccccc1C1c2ccc(O)cc2Oc2nc3c(c(N)c21)CCCC3` (centres unmarked) [3e, 11-Amino-12-(2-methoxyphenyl)-7,9, 10, 12-tetrahydro-8H-chromeno[2,3-b]quinolin-3-ol] yielded an IC50 of 5.88 ± 0.31 µM.

For the molecule `Nc1c2c(nc3c1C(c1cccc(Br)c1)c1ccc(OS(=O)(=O)c4ccc(F)cc4)cc1O3)CCCC2` (centres unmarked) [4a, 11-Amino-12-(3-bromophenyl)-7,9,10,12-tetrahydro-8H-chromeno[2,3-b]quinolin-3-yl-4-fluorobenzenesulfonate], the IC50 at hAChE stood at 3.88 ± 0.21 µM.

Molecule `COc1cccc(C2c3ccc(OS(=O)(=O)c4ccc(F)cc4)cc3Oc3nc4c(c(N)c32)CCCC4)c1` (centres unmarked) [4b, 11-Amino-12-(3-methoxyphenyl)-7,9,10,12-tetrahydro-8H-chromeno[2,3-b]quinolin-3-yl-4-fluorobenzenesulfonate] had a 50% inhibitory concentration (IC50) on hAChE of 13.5 ± 0.72 µM. Compared with the last molecule, the IC50 is about 3.5-fold higher.

For the molecule `Nc1c2c(nc3c1C(c1ccc(Cl)c(Cl)c1)c1ccc(OS(=O)(=O)c4ccc(F)cc4)cc1O3)CCCC2` (centres unmarked) [4d, 11-Amino-12-(3,4-dichlorophenyl)-7,9,10,12-tetrahydro-8H-chromeno[2,3-b]quinolin-3-yl-4-fluorobenzenesulfonate], the IC50 at hAChE stood at 6.09 ± 0.32 µM.

Turning to `COc1ccccc1C1c2ccc(OS(=O)(=O)c3ccc(F)cc3)cc2Oc2nc3c(c(N)c21)CCCC3` (centres unmarked) [4e, 11-Amino-12-(2-methoxyphenyl)-7,9,10,12-tetrahydro-8H-chromeno[2,3-b]quinolin-3-yl-4-fluorobenzenesulfonate], the IC50 against hAChE amounted to 22.4 ± 1.19 µM.

As for `COc1ccc(S(=O)(=O)Oc2ccc3c(c2)Oc2nc4c(c(N)c2C3c2cccc(Br)c2)CCCC4)cc1` (centres unmarked) [4f, 11-Amino-12-(3-bromophenyl)-7,9,10,12-tetrahydro-8H-chromeno[2,3-b]quinolin-3-yl-4-methoxybenzenesulfonate], the IC50 against hAChE is 0.73 ± 0.03 µM.

In turn, `COc1ccc(S(=O)(=O)Oc2ccc3c(c2)Oc2nc4c(c(N)c2C3c2cccc([N+](=O)[O-])c2)CCCC4)cc1` (centres unmarked) [4h, 11-Amino-12-(3-nitrophenyl)-7,9,10,12-tetrahydro-8H-chromeno[2,3-b]quinolin-3-yl-4-methoxybenzenesulfonate] came in with an IC50 against hAChE of 1.53 ± 0.07 µM.

For `COc1ccc(S(=O)(=O)Oc2ccc3c(c2)Oc2nc4c(c(N)c2C3c2ccc(Cl)c(Cl)c2)CCCC4)cc1` (centres unmarked) [4i, 11-Amino-12-(3,4-dichlorophenyl)-7,9,10,12-tetrahydro-8H-chromeno[2,3-b]quinolin-3-yl-4-methoxybenzenesulfonate], half-maximal inhibition against hAChE (IC50) required 2.2 ± 0.1 µM.

For `COc1ccc(S(=O)(=O)Oc2ccc3c(c2)Oc2nc4c(c(N)c2C3c2ccccc2OC)CCCC4)cc1` (centres unmarked) [4j, 11-Amino-12-(2-methoxyphenyl)-7,9,10,12-tetrahydro-8H-chromeno[2,3-b]quinolin-3-yl-4-methoxybenzenesulfonate], at hAChE, the IC50 is 5.16 ± 0.22 µM. Compared with the last molecule, the IC50 is about 2.3-fold higher.

On hAChE, `Cc1ccc(S(=O)(=O)Oc2ccc3c(c2)Oc2nc4c(c(N)c2C3c2cccc(Br)c2)CCCC4)cc1` (centres unmarked) [4k, 11-Amino-12-(3-bromophenyl)-7,9,10,12-tetrahydro-8H-chromeno[2,3-b]quinolin-3-yl-4-methylbenzenesulfonate] registered an IC50 of 9.35 ± 0.4 µM.

Turning to `COc1cccc(C2c3ccc(OS(=O)(=O)c4ccc(C)cc4)cc3Oc3nc4c(c(N)c32)CCCC4)c1` (centres unmarked) [4l, 11-Amino-12-(3-methoxyphenyl)-7,9,10,12-tetrahydro-8H-chromeno[2,3-b]quinolin-3-yl-4-methylbenzenesulfonate], the IC50 against hAChE turned out to be 2.62 ± 0.11 µM.

For `Cc1ccc(S(=O)(=O)Oc2ccc3c(c2)Oc2nc4c(c(N)c2C3c2cccc([N+](=O)[O-])c2)CCCC4)cc1` (centres unmarked) [4m, 11-Amino-12-(3-nitrophenyl)-7,9,10,12-tetrahydro-8H-chromeno[2,3-b]quinolin-3-yl-4-methylbenzenesulfonate], the IC50 against hAChE is 11.1 ± 0.48 µM.

`COc1ccccc1C1c2ccc(OS(=O)(=O)c3ccc(C)cc3)cc2Oc2nc3c(c(N)c21)CCCC3` (centres unmarked) [4o, 11-Amino-12-(2-methoxyphenyl)-7,9,10,12-tetrahydro-8H-chromeno[2,3-b]quinolin-3-yl-4-methylbenzenesulfonate] had an IC50 against hAChE of 1.03 ± 0.04 µM. This IC50 is about 11-fold lower than that of the molecule before.

`Nc1c2c(nc3c1C(c1cccc(Br)c1)c1ccc(OS(=O)(=O)c4ccccc4)cc1O3)CCCC2` (centres unmarked) [4p, 11-Amino-12-(3-bromophenyl)-7,9,10,12-tetrahydro-8H-chromeno[2,3-b]quinolin-3-yl-benzenesulfonate] gave an IC50 against hAChE of 1.34 ± 0.07 µM.

`COc1cccc(C2c3ccc(OS(=O)(=O)c4ccccc4)cc3Oc3nc4c(c(N)c32)CCCC4)c1` (centres unmarked) [4q, 11-Amino-12-(3-methoxyphenyl)-7,9,10,12-tetrahydro-8H-chromeno[2,3-b]quinolin-3-yl-benzenesulfonate]: on hAChE, the IC50 came out at 2.45 ± 0.12 µM.

The molecule `Nc1c2c(nc3c1C(c1cccc([N+](=O)[O-])c1)c1ccc(OS(=O)(=O)c4ccccc4)cc1O3)CCCC2` (centres unmarked) [4r, 11-Amino-12-(3-nitrophenyl)-7,9,10,12-tetrahydro-8H-chromeno[2,3-b]quinolin-3-yl-benzenesulfonate] yielded an IC50 at hAChE of 5.5 ± 0.28 µM.

For the molecule `Nc1c2c(nc3c1C(c1ccc(Cl)c(Cl)c1)c1ccc(OS(=O)(=O)c4ccccc4)cc1O3)CCCC2` (centres unmarked) [4s, 11-Amino-12-(3,4-dichlorophenyl)-7,9,10,12-tetrahydro-8H-chromeno[2,3-b]quinolin-3-yl-benzenesulfonate], the IC50 on hAChE was determined as 9.69 ± 0.49 µM.

Turning to `COc1ccccc1C1c2ccc(OS(=O)(=O)c3ccccc3)cc2Oc2nc3c(c(N)c21)CCCC3` (centres unmarked) [4t, 11-Amino-12-(2-methoxyphenyl)-7,9,10,12-tetrahydro-8H-chromeno[2,3-b]quinolin-3-yl-benzenesulfonate], half-maximal inhibition at hAChE (IC50) required 24 ± 1.21 µM.

On to `Nc1c2c(nc3c1C(c1cccc(Br)c1)c1ccc(OCC(=O)c4ccc(Cl)cc4)cc1O3)CCCC2` (centres unmarked) [5a, 2-[11-Amino-12-(3-bromophenyl)-7,9,10,12-tetrahydro-8H-chromeno[2,3-b]quinolin-3-yl]oxy-1-(4-chlorophenyl)ethan-1-one], for which, on hAChE, the IC50 amounted to 0.99 ± 0.05 µM.

On hAChE, `COc1cccc(C2c3ccc(OCC(=O)c4ccc(Cl)cc4)cc3Oc3nc4c(c(N)c32)CCCC4)c1` (centres unmarked) [5b, 2-[11-Amino-12-(3-methoxyphenyl)-7,9,10,12-tetrahydro-8H-chromeno[2,3-b]quinolin-3-yl]oxy-1-(4-chlorophenyl)ethan-1-one] had an IC50 of 6.01 ± 0.3 µM. This IC50 lies about 6.1-fold higher than the previous one.

On hAChE, `COc1ccccc1C1c2ccc(OCC(=O)c3ccc(Cl)cc3)cc2Oc2nc3c(c(N)c21)CCCC3` (centres unmarked) [5e, 2-[11-Amino-12-(2-methoxyphenyl)-7,9,10,12-tetrahydro-8H-chromeno[2,3-b]quinolin-3-yl]oxy-1-(4-chlorophenyl)ethan-1-one] showed an IC50 of 0.75 ± 0.04 µM.

Molecule `Nc1c2c(nc3c1C(c1cccc(Br)c1)c1ccc(OCC(=O)c4ccccc4)cc1O3)CCCC2` (centres unmarked) [5f, 2-[11-Amino-12-(3-bromophenyl)-7,9,10,12-tetrahydro-8H-chromeno[2,3-b]quinolin-3-yl]oxy-1-phenylethan-1-one] showed an IC50 on hAChE of 1.14 ± 0.054 µM.

In the case of `COc1cccc(C2c3ccc(OCC(=O)c4ccccc4)cc3Oc3nc4c(c(N)c32)CCCC4)c1` (centres unmarked) [5g, 2-[11-Amino-12-(3-methoxyphenyl)-7,9,10,12-tetrahydro-8H-chromeno[2,3-b]quinolin-3-yl]oxy-1-phenylethan-1-one], it took 31 ± 1.47 µM to reach half-maximal inhibition against hAChE (IC50).

As for `Nc1c2c(nc3c1C(c1cccc([N+](=O)[O-])c1)c1ccc(OCC(=O)c4ccccc4)cc1O3)CCCC2` (centres unmarked) [5h, 2-[11-Amino-12-(3-nitrophenyl)-7,9,10,12-tetrahydro-8H-chromeno[2,3-b]quinolin-3-yl]oxy-1-phenylethan-1-one], the IC50 at hAChE was 10.2 ± 0.48 µM.

On hAChE, `COc1ccccc1C1c2ccc(OCC(=O)c3ccccc3)cc2Oc2nc3c(c(N)c21)CCCC3` (centres unmarked) [5j, 2-[11-Amino-12-(2-methoxyphenyl)-7,9,10,12-tetrahydro-8H-chromeno[2,3-b]quinolin-3-yl]oxy-1-phenylethan-1-one] showed a half-maximal inhibitory concentration (IC50) of 2.48 ± 0.12 µM.

What is called inhibition is the drop in the measured response relative to a control, in per cent. In the case of `COc1cc(/C=C/C(=O)CC(=O)/C=C/c2ccc(O)c(OC)c2)ccc1O` [Curcumin, reference compound], the inhibition at 10 µM at Aβ1–42 came to 44%.

In turn, `COc1cccc2c1C(=O)c1c(O)c3c(c(O)c1C2=O)C[C@@](O)(C(=O)CO)C[C@@H]3O[C@H]1C[C@H](N)[C@H](O)[C@H](C)O1` [Doxorubicin, reference compound] registered an IC50 at 24 h in series [1] of 4.5 ± 0.2 µM.

Molecule `Nc1c2c(nc3ccccc13)CCCC2` [Tacrine, reference compound] displayed a concentration for half-maximal inhibition (IC50) at 24 h in series [1] of 17.5 ± 1.1 µM. This IC50 at 24 h is about 3.9-fold higher than that of the molecule before.
